According to publication PMC7285812 (Drug Design, Development and Therapy, 2020):
Where “and” joins values, the source holds several entries; their conditions need not be identical. Equal entries are not always repeated. Structures can show the parent of a compound that is named as a salt.

Legend:
α-glucosidase = α-glucosidase (Saccharomyces cerevisiae, UniProt P53341); test: Michaelis–Menten kinetics of α-glucosidase inhibition; format: biochemical; details: Michaelis–Menten / Lineweaver–Burk
[1] = target: BChE (lyophilized equine serum) (Equus caballus, UniProt P81908); test: Butyrylcholinesterase inhibition, Ellman's assay; format: biochemical; details: for inhibition at 15.62 µg/mL / inhibition at 31.25 µg/mL / inhibition at 62.5 µg/mL / inhibition at 125 µg/mL / inhibition at 250 µg/mL / inhibition at 500 µg/mL / inhibition at 1000 µg/mL: read-out: (%) Inhibition BChE
AChE electric eel = AChE electric eel (Electrophorus electricus, UniProt O42275); test: biochemical; details: for inhibition at 15.62 µg/mL / inhibition at 31.25 µg/mL / inhibition at 62.5 µg/mL / inhibition at 125 µg/mL / inhibition at 250 µg/mL / inhibition at 500 µg/mL / inhibition at 1000 µg/mL: read-out: (%) Inhibition AChE
[2] = target: α-glucosidase from Saccharomyces cerevisiae (Saccharomyces cerevisiae, UniProt P53341); test: α-Glucosidase inhibition, chromogenic assay; format: biochemical; details: for inhibition at 15.62 µg/mL / inhibition at 31.25 µg/mL / inhibition at 62.5 µg/mL / inhibition at 125 µg/mL / inhibition at 250 µg/mL / inhibition at 500 µg/mL / inhibition at 1000 µg/mL: read-out: (%) Inhibition α-glucosidase
[3] = ABTS free radicals scavenging assay; details: for IC50: read-out: IC50 ABTS free radicals scavenging
[4] = DPPH radicals scavenging assay; details: for IC50: read-out: IC50 DPPH free radicals scavenging
acetylcholinesterase = acetylcholinesterase (Electrophorus electricus, UniProt O42275); test: Michaelis–Menten kinetics of acetylcholinesterase inhibition; format: biochemical, electric eel; details: Michaelis–Menten / Lineweaver–Burk
butyrylcholinesterase = butyrylcholinesterase (Equus caballus, UniProt P81908); test: Michaelis–Menten kinetics of butyrylcholinesterase inhibition; format: biochemical, equine; details: Michaelis–Menten / Lineweaver–Burk
[5] = Hydrogen peroxide free radicals scavenging assay; details: read-out: IC50 H2O2 free radicals scavenging

α-glucosidase from Saccharomyces cerevisiae, sequence (P53341 whole entry): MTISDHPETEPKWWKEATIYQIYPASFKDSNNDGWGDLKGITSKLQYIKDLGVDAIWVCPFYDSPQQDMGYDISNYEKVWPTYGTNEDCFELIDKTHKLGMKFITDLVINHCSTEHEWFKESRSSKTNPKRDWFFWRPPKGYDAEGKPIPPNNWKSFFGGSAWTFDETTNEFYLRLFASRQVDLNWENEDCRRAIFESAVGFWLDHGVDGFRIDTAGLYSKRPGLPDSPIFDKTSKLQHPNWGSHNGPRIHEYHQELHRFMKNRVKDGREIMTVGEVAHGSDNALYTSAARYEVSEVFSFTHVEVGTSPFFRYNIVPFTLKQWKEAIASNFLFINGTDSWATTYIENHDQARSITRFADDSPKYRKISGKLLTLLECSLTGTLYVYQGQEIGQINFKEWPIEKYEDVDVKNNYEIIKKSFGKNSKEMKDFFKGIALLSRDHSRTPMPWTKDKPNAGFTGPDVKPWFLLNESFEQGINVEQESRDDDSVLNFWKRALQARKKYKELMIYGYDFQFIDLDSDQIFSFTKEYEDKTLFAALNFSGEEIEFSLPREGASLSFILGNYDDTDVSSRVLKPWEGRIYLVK
α-glucosidase, sequence (P53341 whole entry): as above
AChE electric eel, sequence (O42275 24-633): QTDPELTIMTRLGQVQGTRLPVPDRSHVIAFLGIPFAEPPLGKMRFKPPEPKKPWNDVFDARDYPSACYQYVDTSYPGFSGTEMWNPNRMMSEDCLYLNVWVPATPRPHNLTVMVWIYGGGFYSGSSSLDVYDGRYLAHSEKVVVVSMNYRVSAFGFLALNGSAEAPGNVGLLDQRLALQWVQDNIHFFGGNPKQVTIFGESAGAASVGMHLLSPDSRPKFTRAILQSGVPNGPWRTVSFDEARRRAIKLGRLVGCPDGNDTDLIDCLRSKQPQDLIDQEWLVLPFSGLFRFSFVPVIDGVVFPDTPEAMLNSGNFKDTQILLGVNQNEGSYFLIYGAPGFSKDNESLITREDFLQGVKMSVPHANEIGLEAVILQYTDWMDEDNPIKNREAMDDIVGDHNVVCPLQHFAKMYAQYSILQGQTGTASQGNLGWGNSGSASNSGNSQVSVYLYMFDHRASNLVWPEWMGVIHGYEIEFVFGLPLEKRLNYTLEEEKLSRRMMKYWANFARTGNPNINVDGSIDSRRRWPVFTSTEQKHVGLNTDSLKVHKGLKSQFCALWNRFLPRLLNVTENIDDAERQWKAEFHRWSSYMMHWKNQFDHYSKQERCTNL
butyrylcholinesterase, sequence (P81908 whole entry): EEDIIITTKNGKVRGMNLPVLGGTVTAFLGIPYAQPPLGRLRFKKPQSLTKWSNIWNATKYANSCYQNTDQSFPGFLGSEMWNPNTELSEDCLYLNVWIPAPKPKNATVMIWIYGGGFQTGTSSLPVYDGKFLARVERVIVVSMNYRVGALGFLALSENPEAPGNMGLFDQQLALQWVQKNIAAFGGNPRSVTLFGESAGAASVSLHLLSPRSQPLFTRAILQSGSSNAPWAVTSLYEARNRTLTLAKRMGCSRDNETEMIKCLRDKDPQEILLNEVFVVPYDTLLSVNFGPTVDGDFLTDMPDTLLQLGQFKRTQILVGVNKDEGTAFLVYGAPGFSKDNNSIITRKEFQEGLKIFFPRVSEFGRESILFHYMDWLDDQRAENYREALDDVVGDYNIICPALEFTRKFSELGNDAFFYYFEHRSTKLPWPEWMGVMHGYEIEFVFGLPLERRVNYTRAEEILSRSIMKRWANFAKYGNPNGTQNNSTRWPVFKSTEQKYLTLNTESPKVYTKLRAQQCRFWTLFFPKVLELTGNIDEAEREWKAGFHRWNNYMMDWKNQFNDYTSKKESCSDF
BChE (lyophilized equine serum), sequence (P81908 whole entry): as above
acetylcholinesterase, sequence (O42275 24-633): as the sequence (O42275 24-633) above

## C[C@](C=O)(c1ccccc1)[C@@H]1CC(=O)N(c2ccccc2)C1=O [Compound 2, (R)-2-((S)-2,5-dioxo-1-phenylpyrrolidin-3-yl)-2-phenylpropanal]
α-glucosidase
  Vmax, α-glucosidase: 3.542 µg/min
[1]
  IC50: 358 µM
  inhibition at 15.62 µg/mL: 23.4 ± 0.82%
  inhibition at 31.25 µg/mL: 31.2 ± 0.47%
  inhibition at 62.5 µg/mL: 42 ± 0.97%
  inhibition at 125 µg/mL: 51.9 ± 0.45%
  inhibition at 250 µg/mL: 62.12 ± 0.54%
  inhibition at 500 µg/mL: 72.54 ± 0.6%
  inhibition at 1000 µg/mL: 79 ± 1.03%
AChE electric eel
  IC50: 423 µM
  inhibition at 15.62 µg/mL: 21.3 ± 0.87%
  inhibition at 31.25 µg/mL: 27.2 ± 0.47%
  inhibition at 62.5 µg/mL: 39.1 ± 0.54%
  inhibition at 125 µg/mL: 48 ± 0.3%
  inhibition at 250 µg/mL: 59.9 ± 0.6%
  inhibition at 500 µg/mL: 70.5 ± 0.9%
  inhibition at 1000 µg/mL: 77.23 ± 0.22%
[2]
  IC50: 472 µM
  inhibition at 15.62 µg/mL: 28.8 ± 1.5%
  inhibition at 31.25 µg/mL: 34 ± 0.35%
  inhibition at 62.5 µg/mL: 41.9 ± 0.96%
  inhibition at 125 µg/mL: 47.8 ± 1.5%
  inhibition at 250 µg/mL: 55.8 ± 0.71%
  inhibition at 500 µg/mL: 65.08 ± 0.47%
  inhibition at 1000 µg/mL: 71.8 ± 1.24%
[3]; 15.62 μg/mL
  (%) Inhibition ABTS: 12.33±1.67 %
[3]; 31.25 μg/mL
  (%) Inhibition ABTS: 22.83±1.21 %
[3]; 62.5 μg/mL
  (%) Inhibition ABTS: 38.10±0.90 %
[3]; 125 μg/mL
  (%) Inhibition ABTS: 49.31±0.58 %
[3]; 250 μg/mL
  (%) Inhibition ABTS: 59.87±0.85 %
[3]; 500 μg/mL
  (%) Inhibition ABTS: 68.51±0.54 %
[3]; 1000 μg/mL
  (%) Inhibition ABTS: 75.76±0.61 %
[3]
  IC50: 498 µM
[4]; 15.62 μg/mL
  (%) Inhibition DPPH: 13.70±1.60 %
[4]; 31.25 μg/mL
  (%) Inhibition DPPH: 23.55 ± 1.85 %
[4]; 62.5 μg/mL
  (%) Inhibition DPPH: 36.36 ± 0.91 %
[4]; 125 μg/mL
  (%) Inhibition DPPH: 50.07 ± 0.97 %
[4]; 250 μg/mL
  (%) Inhibition DPPH: 61.31 ± 1.97 %
[4]; 500 μg/mL
  (%) Inhibition DPPH: 70.34 ±1.10 %
[4]; 1000 μg/mL
  (%) Inhibition DPPH: 77.04 ± 1.61 %
[4]
  IC50: 407 µM
acetylcholinesterase
  Vmax, acetylcholinesterase inhibition: 78.65 µg/min
butyrylcholinesterase
  Vmax, butyrylcholinesterase inhibition: 2.867 µg/min

## C[C@H]1O[C@H](O[C@H]2[C@H](O)[C@@H](O)[C@@H](O[C@H]3[C@H](O)[C@@H](O)C(O)O[C@@H]3CO)O[C@@H]2CO)[C@H](O)[C@@H](O)[C@@H]1N[C@H]1C=C(CO)[C@@H](O)[C@H](O)[C@H]1O (some centres unmarked) [Acarbose (Std), acarbose, reference compound]
α-glucosidase
  Vmax, α-glucosidase: 2.639 µg/min and 2.616 µg/min
[2]
  inhibition at 15.62 µg/mL: 41.8 ± 0.37%
  inhibition at 31.25 µg/mL: 49.9 ± 0.48%
  inhibition at 62.5 µg/mL: 57.7 ± 0.88%
  inhibition at 125 µg/mL: 63.9 ± 1.27%
  inhibition at 250 µg/mL: 72 ± 2.01%
  inhibition at 500 µg/mL: 75.1 ± 1.04%
  inhibition at 1000 µg/mL: 83.6 ± 1.67%

## O=CC1([C@@H]2CC(=O)N(c3ccccc3)C2=O)CCCCC1 [Compound 1, (S)-1-(2,5-dioxo-1-phenylpyrrolidin-3-yl) cyclohexanecarbaldehyde]
α-glucosidase
  Vmax, α-glucosidase: 2.360 µg/min
[1]
  IC50: 277 µM
  inhibition at 15.62 µg/mL: 15.4 ± 0.9%
  inhibition at 31.25 µg/mL: 26.1 ± 1.04%
  inhibition at 62.5 µg/mL: 44.6 ± 0.63%
  inhibition at 125 µg/mL: 59.8 ± 1.21%
  inhibition at 250 µg/mL: 69.7 ± 0.91%
  inhibition at 500 µg/mL: 75.76 ± 0.61%
  inhibition at 1000 µg/mL: 81.49 ± 0.6%
AChE electric eel
  IC50: 343 µM
  inhibition at 15.62 µg/mL: 12.8 ± 1.5%
  inhibition at 31.25 µg/mL: 23.9 ± 0.88%
  inhibition at 62.5 µg/mL: 41.1 ± 0.47%
  inhibition at 125 µg/mL: 57.03 ± 0.35%
  inhibition at 250 µg/mL: 68.6 ± 1.06%
  inhibition at 500 µg/mL: 72.76 ± 0.71%
  inhibition at 1000 µg/mL: 78.42 ± 0.43%
[2]
  IC50: 158 µM
  inhibition at 15.62 µg/mL: 28 ± 0.35%
  inhibition at 31.25 µg/mL: 34.4 ± 0.43%
  inhibition at 62.5 µg/mL: 44.9 ± 1.55%
  inhibition at 125 µg/mL: 58.8 ± 0.71%
  inhibition at 250 µg/mL: 68.8 ± 1.24%
  inhibition at 500 µg/mL: 72.9 ± 0.96%
  inhibition at 1000 µg/mL: 79.6 ± 1.12%
[3]; 15.62 μg/mL
  (%) Inhibition ABTS: 16.60±1.63 %
[3]; 31.25 μg/mL
  (%) Inhibition ABTS: 26.87±0.85 %
[3]; 62.5 μg/mL
  (%) Inhibition ABTS: 40.51±0.54 %
[3]; 125 μg/mL
  (%) Inhibition ABTS: 54.49±0.60 %
[3]; 250 μg/mL
  (%) Inhibition ABTS: 61.22±1.28 %
[3]; 500 μg/mL
  (%) Inhibition ABTS: 67.31±0.58 %
[3]; 1000 μg/mL
  (%) Inhibition ABTS: 79.87±1.27 %
[3]
  IC50: 333 µM
[5]
  IC50: 826 µM
[4]; 15.62 μg/mL
  (%) Inhibition DPPH: 28.23 ± 1.71 %
[4]; 31.25 μg/mL
  (%) Inhibition DPPH: 34.05 ± 1.40 %
[4]; 62.5 μg/mL
  (%) Inhibition DPPH: 44.66 ± 0.88 %
[4]; 125 μg/mL
  (%) Inhibition DPPH: 58.50 ± 1.61 %
[4]; 250 μg/mL
  (%) Inhibition DPPH: 68.40 ± 1.97 %
[4]; 500 μg/mL
  (%) Inhibition DPPH: 72.83 ± 1.89 %
[4]; 1000 μg/mL
  (%) Inhibition DPPH: 79.53 ± 1.92 %
[4]
  IC50: 298 µM
acetylcholinesterase
  Vmax, acetylcholinesterase inhibition: 84.93 µg/min
butyrylcholinesterase
  Vmax, butyrylcholinesterase inhibition: 1.553 µg/min

## O=C1O[C@H]([C@@H](O)CO)C(O)=C1O [Ascorbic acid (Std.), ascorbic acid, reference compound]
[3]; 15.62 μg/mL
  (%) Inhibition ABTS: 46.00±0.58%
[3]; 31.25 μg/mL
  (%) Inhibition ABTS: 52.67±0.89%
[3]; 62.5 μg/mL
  (%) Inhibition ABTS: 58.00±1.15%
[3]; 125 μg/mL
  (%) Inhibition ABTS: 67.00±0.00%
[3]; 250 μg/mL
  (%) Inhibition ABTS: 75.03±0.23%
[3]; 500 μg/mL
  (%) Inhibition ABTS: 81.70±1.60%
[3]; 1000 μg/mL
  (%) Inhibition ABTS: 87.73±0.78%
[3]
  IC50: 85.2 µM
[4]; 15.62 μg/mL
  (%) Inhibition DPPH: 48.70 ± 0.90%
[4]; 31.25 μg/mL
  (%) Inhibition DPPH: 55.23 ± 1.21%
[4]; 62.5 μg/mL
  (%) Inhibition DPPH: 61.40 ± 1.85%
[4]; 125 μg/mL
  (%) Inhibition DPPH: 69.66 ± 1.36%
[4]; 250 μg/mL
  (%) Inhibition DPPH: 77.00 ± 1.73%
[4]; 500 μg/mL
  (%) Inhibition DPPH: 83.96 ± 1.91%
[4]; 1000 μg/mL
  (%) Inhibition DPPH: 89.00 ± 0.57%
[4]
  IC50: 96.5 µM

## COc1ccc2c3c1O[C@H]1C[C@@H](O)C=C[C@@]31CCN(C)C2 [Galanthamine (Std.), galanthamine hydrobromide, reference compound]
[1]
  inhibition at 15.62 µg/mL: 49.7 ± 0.68%
  inhibition at 31.25 µg/mL: 59.33 ± 0.49%
  inhibition at 62.5 µg/mL: 69.03 ± 0.23%
  inhibition at 125 µg/mL: 73.23 ± 0.4%
  inhibition at 250 µg/mL: 80.74 ± 0.68%
  inhibition at 500 µg/mL: 86.9 ± 0.48%
  inhibition at 1000 µg/mL: 93.9 ± 0.96%
butyrylcholinesterase; listed as galantamine
  Vmax, butyrylcholinesterase inhibition: 2.566 µg/min and 2.641 µg/min
